{
  "source": "patent US20220160751A1",
  "about": "“METHODS OF TREATMENT OF DISEASES AND DISORDERS ASSOCIATED WITH INCREASED TET LEVEL, INCREASED H19 LEVEL, INCREASED LEVEL OF TGF SIGNALING, OR ANY COMBINATION THEREOF” (YALE UNIVERSITY, priority 2019, published 2022)",
  "key": {"[1]": {"system": "TGFB1, TSP1 and TGFBR2 promoters", "test": "ChIP-qPCR and QMSP in LX-2 cells", "format": "cell-based, human", "conditions": "48 h, vs siCon", "procedure": "The assays were carried out as previously described in (Zhou J et al., 2015, Nat Commun 6:10221; Zhong T et al., 2016, Oncogene 36:2345-2354) with minor modifications. Briefly, gDNA was extracted from LX-2 cells in 24-well plates using Quick-gDNA MicroPrep (Zymo Research Corporation, Irvine, Calif.; D3021). For bisulfite treatment using EZ DNA Methylation-Gold Kit (Zymo, D5006), 90-500 ng of gDNA was used per column and 20-40 μl of elution buffer was used to elute DNA from each column. qPCR was performed in a 15 μl reaction containing 5 μl of eluted DNA using iQSYBRGreen (Bio-Rad, Hercules, Calif.; 1708880) in a Bio-Rad iCycler. PCR was conducted by initial denaturation at 95° C. for 5 min, followed by 40 cycles of 30 sec at 95° C., 30 sec at 60° C., and 30 sec at 72° C. Two sets of PCR primers were designed: one for unmethylated and one for methylated DNA sequences. The PCR primers for methylated DNA were used at a final concentration of 0.6 μM in each PCR reaction. The relative levels of methylated versus unmethylated DNA sequences are presented.\nThese experiments were performed as previously described (Zhou J et al., 2015, Nat Commun 6:10221) with minor modifications. Briefly, experiments were performed in a 10-cm plate scale using Chromatin Prep Module Kit (Thermo, catalog number 26158) according to the manufacturer's instructions. Agarose beads were used to pre-bind overnight with antibodies against TET3 (Millipore Sigma, ABE290), H3K4me3 (Cell signaling, C42D8) and H3K27me3 (Cell signaling, C36B11). Preimmune IgG was used as a negative control. LX-2 cells were cross-linked with 1% formaldehyde at RT for 10 min and the reaction was stopped by 1× glycine. ChIPs were carried out overnight at 4° C. Primers (Table 1) for the specific promoter regions of TGFB1, TSP1, and TGFBR2 were used to amplify input and ChIP-purified DNA. The relative enrichments of the indicated DNA regions were calculated using the Percent Input Method according to the manufacturer's instructions and were normalized to % input. Data are presented after normalization against background IgG signals."}, "[2]": {"system": "UtLM and ht-UtLM leiomyoma cells", "test": "RT-qPCR and Western blot of gene expression in leiomyoma cells", "format": "cell-based, human", "text": "Antibodies for TET3 (GeneTex, GTX121453; used at a dilution of 1/500), TGFBR2 (Abcam, ab184948; used at a dilution of 1/1000), TSP1 (Abcam, ab85762; used at a dilution of 1/500), MED12 (Novus Biological, NB100-2357; used at a dilution of 1/500), HMGA2 (Proteintech, 20795-1-AP; used at a dilution of 1/500), GRAF1 (Cell Signaling, 8802; used at a dilution of 1/500), SPARC (Cell Signaling, 8725; used at a dilution of 1/500), COL3A1 (LS-Bio, LS-C159386; used at a dilution of 1/1000), COL4A1 (LS-Bio, LS-C100552; used at a dilution of 1/500), COL5A2 (Origene, TA809611; used at a dilution of 1/500) and GAPDH (Abcam, ab128915; used at a dilution of 1/10000) were purchased. Human H19 siRNA (siH19) and control siRNA (siCon) were previously described (Ghazal S et al., 2015, EMBO Mol Med 7:996-1003). siTET3 (Ambion, 4392420/s47239), estradiol ([…], Sigma), and progesterone ([…], Sigma) were purchased. Estradiol and progesterone were dissolved in DMSO and used at a final concentration of 10^-8M. ht-UtLM cells tested negative for mycoplasma contamination were maintained in MEM (Sigma, #M3024) supplemented with 20% fetal bovine serum, 1×MEM Vitamin Solution (Invitrogen #11120-052), 1×MEM Amino Acids Solution (Invitrogen, #11130-051), and 1×MEM Non-Essential Amino Acids (Invitrogen #11140-050). Primary UtLM-1 and UtLM-2 cells were maintained in DMEM (Gibco, #10567014) supplemented with 20% fetal bovine serum, and 1% penicillin/streptomycin, 1% amphotericin B. All cells were transfected in a 24-well plate scale. To prepare siRNA transfection solution for each well, 10 pmol (5 pmol for primary cells) of siCon, siH19, or siTET3 were mixed with 25 μl of OPTI-MEM by gentle pipetting. In parallel, 1 μl of Lipofectamine 3000 was mixed with 25 μl of OPTI-MEM. Following 5 min of incubation at room temperature, the two were mixed by gentle inverting and incubated for 10 min at room temperature to allow siRNA/lipid complexes to form. At the end of incubation, the 50 μl of transfection solution was used to re-suspend the cell pellet (3×10^4 cells). After incubation at room temperature for 10 min, growth medium was added at a ratio of 1:9 (1 volume of transfection solution/9 volumes of growth medium), and the cell suspension was transferred to a new culture dish. After overnight incubation in a tissue culture incubator, the medium was replaced with fresh growth medium. For iLet 7 rescue experiments, 10 pmol of siCon/siH19 and 10 pmol of iCon/iLet7 were used for each well of 3×10^4 cells. RNA, genomic DNA, and protein were extracted and analyzed at the indicated time points following transfection."}},
  "data": [
    {"substance": "siTET3: TET3-specific siRNA (human), Ambion 4392420/s47239 (sense CAGCAACUCCUAGAACUGATT; antisense UCAGUUCUAGGAGUUGCUGGA; chemistry not given here)", "values": [
      {"measurement": "H3K4me3 association with promoters", "setting": "[1]", "value": "significantly decreased H3K4me3"},
      {"measurement": "H3K27me3 association with promoters", "setting": "[1]", "value": "increased H3K27me3"},
      {"measurement": "binding of TET3 to TGFB1, TSP1 and TGFBR2 promoters (ChIP-qPCR)", "setting": "[1]", "value": "significantly reduced"},
      {"measurement": "methylation in the CTRRs of TGFB1, TSP1 and TGFBR2 (QMSP)", "setting": "[1]", "value": "increase in methylation in the CTRRs"},
      {"measurement": "ratios of H3K4me3/H3K27me3", "setting": "[1]", "value": "decreased significantly"},
      {"measurement": "protein levels of MED12, TGFBR2, TSP1, GRAF1, SPARC, COL5A2, COL4A1, COL3A1 (Western blot)", "setting": "[2]; UtLM cells, vs siCon", "value": "all decreased"},
      {"measurement": "MED12 expression", "setting": "[2]; ht-UtLM cells", "value": "lack of effects"},
      {"measurement": "mRNA expression of TET3, MED12, TGFBR2, TSP1, GRAF1, SPARC, COL3A1, COL4A1 and COL5A2", "setting": "[2]; primary human leiomyoma cells and ht-UtLM, 48 h, vs siCon", "value": "results similar to those of H19 knockdown were obtained"}
    ]}
  ]
}
